Experimental data: patent US8598339B2, “Withanolide isolated from Physalis longifolia and analogs and methods of use thereof” (University of Kansas, priority 2011, dated 2013)
pIC50: −log10 of the molar value.

Tests used:
Assay type in all cases: cell-based
melanoma cells B16F10 = test: MTS cell viability assay, B16F10; settings: Mus musculus; for pIC50: B16-F10, Table 1, 72-hour treatment; for IC90: B16-F10, Table 2
In short: (§1)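 JMAR and MDA1986 head and neck SCC cells and B16F10 melanoma cells grown in DMEM with 10% heat-inactivated FBS at 37 °C, 5% CO2, seeded at 1-2×10^4 cells/mL. Viability measured by MTS after 72-hour compound treatment, 3-hour reagent incubation, formazan absorbance at 490 nm.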

[1] = system: human melanoma SKMEL28 cells; test: MTS cell viability assay, SKMEL28; settings: Homo sapiens; for pIC50: SK-MEL-28, 72 h; for IC90: SK-MEL-28, Table 2
In short: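 SKMEL28 melanoma cells in DMEM with 10% heat-inactivated FBS were seeded at 1-2×10^4 cells/mL and exposed to withanolides for 72 h. Viability was measured by MTS reagent, incubated 3 h at 37 °C, with formazan absorbance read at 490 nm.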

[2] = system: squamous cell carcinoma of head and neck cells MDA1986; test: MTS cell viability assay, MDA1986; settings: Table 1, 72-hour treatment
In short: as §1

[3] = system: squamous cell carcinoma of head and neck cells JMAR; test: MTS cell viability assay, JMAR; settings: for pIC50: Table 1, 72-hour treatment; for IC90: Table 2
In short: as §1

[4] = system: human carcinoid cells NCI-H727; test: MTS cell viability assay, NCI-H727; settings: Table 1, NCI-H727, 72-hour treatment, read-out: IC50
Protocol: (§2) Human carcinoid cells, NCI-H727 (ATCC, Manassas, Va.), were cultured under standard conditions. Squamous cell carcinoma of head and neck cells, MDA1986 (Myers, et al. (2002) Clin. Cancer Res. 8:293) and JMAR (Swan, et al. (2003) Oral Oncol. 39:648-55); and melanoma cells lines B16F10 (ATCC, Manassas, Va.) and SKMEL28 (CLS, Eppelheim, Germany) were cultured in DMEM medium supplemented with 10% heat-inactivated fetal bovine serum (Sigma-Aldrich, St. Louis, Mo.), 1×MEM-essential amino acid, 1×MEM vitamin, and penicillin/streptomycin (Sigma-Aldrich, St. Louis, Mo.) in a humid environment of 5% CO2 at 37° C. Activity of withanolides against DRO81-1 and TT medullary thyroid cancer cells was also determined.
(§3) Cells were cultured in 96 well plates at a concentration of 1-2×10^4 cells/mL. Cell viability was assessed with the nonradioactive cell proliferation MTS assay using Cell Titer 96AQUEOUS One Solution Reagent (PROMEGA, Madison, Wis.), according to the manufacturer's instruction. After a 72-hour treatment, 20 μL of Cell Titer 96AQUEOUS One Solution Reagent were added to each well and incubated for 3 hours at 37° C. 5% CO2, and formazan absorbance was measured at 490 nm.

MRC-5 = test: MTS cell viability assay, MRC-5; settings: Homo sapiens, MRC5, Table 1, 72-hour treatment
[5] = system: DRO81-1 medullary thyroid cancer cells; test: MTS cell viability assay, DRO81-1; settings: Table 1; DRO81-1; 72-hour treatment; read-out: IC50
Protocol: as §2, §3

UMSCC-2 HNSCC cells = test: Annexin V/PI staining and flow cytometry, UMSCC-2
Protocol: (§4) In similar analysis with X003, 50% of UMSCC-2 HNSCC cells underwent apoptosis (early and late) at 1 μM, while 90% of cells underwent apoptosis at 3 μM. Apoptosis with 1 μM X003 was confirmed with PARP cleavage and caspase 3 activation in NCI-H727 cells.

NCI-H727 cells = test: PARP cleavage and caspase 3 activation, NCI-H727; settings: 1 μM
Protocol: as §4

SUP-B15 Ph+ ALL cells = test: MTS assay, SUP-B15; settings: for pIC50: Homo sapiens, SUP-B15
Protocol: (§5) Cell proliferation was analyzed using MTS assay and Trypan Blue exclusion. Annexin V-FITC/Propidium Iodide flow cytometry was used to analyze the induction of apoptosis in SUP-B15 cells after treatment with anolides. Cell cycle analysis was performed using propidium iodide flow cytometry. Modulation of BCR-ABL and downstream effector proteins was determined by western blot analysis. Syngery between withanolides and TKIs was evaluated using MTS viability to calculate combination indices. Apoptotic synergy was evaluated using Annexin V/PI.

normal MRC-5 fibroblasts = test: MTS assay, normal MRC-5 fibroblasts (Example 7); settings: Homo sapiens, MRC5
Protocol: as §5

SUP-B15 cells [6] = test: Trypan blue exclusion assay, SUP-B15; settings: 5×, 2×, 1×, 0.5×IC50
Protocol: as §5, with “Syngery” left out

SUP-B15 cells [7] = test: Annexin V/propidium iodide apoptosis, SUP-B15; settings: 48 hour; approximately 10×IC50 (Withaferin A, X001), 4×IC50 (X003)
Protocol: as §5
At no concentrations was the population of cells in necrosis significant.

SUP-B15 cells [8] = test: Cell cycle analysis by PI flow cytometry, SUP-B15
Protocol: as §5

SUP-B15 Ph+ALL cells = test: Combination with imatinib, MTS viability, SUP-B15; settings: 16 combinations
Protocol: as §5

HS766T = test: Pancreatic cancer cell viability, HS766T; settings: read-out: IC50
Protocol: (§6) The activity of the withanolides of this invention were tested in pancreatic cancer cells. […] Moreover, IC50 values were determined for these compounds (Table 14).

Mia PaCa-2 = test: Pancreatic cancer cell viability, Mia PaCa-2; settings: Homo sapiens, MIA PaCa2, read-out: IC50
Protocol: as §6

DRO81-1 cells = test: Annexin V/PI staining and flow cytometry, DRO81-1; settings: 24-hour exposure
[9] = system: DRO81-1 medullary thyroid cancer cells; test: PARP cleavage, DRO81-1
MDA-MB-231 = test: MTS assay, MDA-MB-231
Protocol: Cell proliferation was analyzed using MTS assay.

BT20 cells = test: Cell cycle analysis, BT20; settings: 2 μM; 24-hour treatment
[10] = Table 3, treated for 72 hours, NA = no activity

CC(=O)OCC1=C(C)C[C@H]([C@@H](C)C2CC[C@H]3[C@@H]4C[C@H]5O[C@]56[C@@H](OC(C)=O)C=CC(=O)[C@]6(COC(C)=O)[C@H]4CC[C@]23C)OC1=O (some centres unmarked) [Compound X003, 4,19,27-triacetyl X001]
pIC50 (melanoma cells B16F10): 7.17
IC90 (melanoma cells B16F10): 330 nM
pIC50 ([1]; Table 1, 72-hour treatment): 6.27
pIC50 [1, 10]: 6.66
IC90 [1]: 360 nM
pIC50 [2]: 6.04
pIC50 [3]: 6.80
IC90 [3]: 1300 nM
pIC50 [4]: 6.49
pIC50 (MRC-5): 6.24
pIC50 [5]: 6.47
cells undergoing apoptosis (early and late) (UMSCC-2 HNSCC cells; 1 μM, UMSCC-2): 50%
cells undergoing apoptosis (UMSCC-2 HNSCC cells; 3 μM, UMSCC-2): 90%
apoptosis by PARP cleavage and caspase 3 activation (NCI-H727 cells): confirmed
pIC50 (SUP-B15 Ph+ ALL cells): 7.32
Fold Difference (SUP-B15 Ph+ ALL cells; MRC-5 vs SUP-B15 IC50): 31X
pIC50 (normal MRC-5 fibroblasts): 5.82
cell death at 24 hours, trypan blue exclusion (SUP-B15 cells [6]): significant cell death at 24 hours at IC50 values
induction of apoptosis (SUP-B15 cells [7]): almost all cells were in either late or early apoptosis
Cell Cycle (%) G0/G1 (SUP-B15 cells [8]; 15 nM): 57.4%
Cell Cycle (%) G2/M (SUP-B15 cells [8]; 15 nM): 20.7%
Cell Cycle (%) S (SUP-B15 cells [8]; 15 nM): 21.9%
Cell Cycle (%) G0/G1 (SUP-B15 cells [8]; 30 nM): 66.4%
Cell Cycle (%) G2/M (SUP-B15 cells [8]; 30 nM): 24%
Cell Cycle (%) S (SUP-B15 cells [8]; 30 nM): 9.5%
Cell Cycle (%) G0/G1 (SUP-B15 cells [8]; 60 nM): 62.5%
Cell Cycle (%) G2/M (SUP-B15 cells [8]; 60 nM): 22.2%
Cell Cycle (%) S (SUP-B15 cells [8]; 60 nM): 15.3%
Cell Cycle (%) G0/G1 (SUP-B15 cells [8]; 120 nM): 52.6%
Cell Cycle (%) G2/M (SUP-B15 cells [8]; 120 nM): 30%
Cell Cycle (%) S (SUP-B15 cells [8]; 120 nM): 17.4%
combination index (CI) with imatinib (SUP-B15 Ph+ALL cells; 0.25×-1×IC50 of each drug): 0.136
synergy with imatinib (SUP-B15 Ph+ALL cells): showed synergy at all concentrations tested
pIC50 (HS766T): 6.40
pIC50 (Mia PaCa-2): 6.46

CC1=C(CO)C(=O)O[C@@H]([C@@H](C)C2CC[C@H]3[C@@H]4C[C@H]5O[C@]56[C@@H](O)C=CC(=O)[C@]6(CO)[C@H]4CC[C@]23C)C1 (some centres unmarked) [Compound X001]
pIC50 (melanoma cells B16F10): 6.04
IC90 (melanoma cells B16F10): 2640 nM
pIC50 ([1]; Table 1, 72-hour treatment): 5.30
pIC50 [1, 10]: 5.33
IC90 [1]: 2140 nM
pIC50 [2]: 5.48
pIC50 [3]: 5.27
IC90 [3]: 4900 nM
pIC50 [4]: 5.77
pIC50 (MRC-5): 4.90
pIC50 [5]: 5.64
induction of apoptosis (DRO81-1 cells; 5 μM): apoptosis was induced
cells gated toward late apoptosis (DRO81-1 cells; 10 μM): 65%
cells undergoing apoptosis (early and late) (UMSCC-2 HNSCC cells; 5 μM, 24-hour exposure, HNSCC cells): 18%
cleavage of PARP starting at (concentration) [9]: 500 nM
pIC50 (SUP-B15 Ph+ ALL cells): 6.46
pIC50 (normal MRC-5 fibroblasts): 5.09
cell death at 24 hours, trypan blue exclusion (SUP-B15 cells [6]): caused death at 24 hours with 2× and 5×IC50 values
induction of apoptosis (SUP-B15 cells [7]): almost all cells were in either late or early apoptosis
Cell Cycle (%) G0/G1 (SUP-B15 cells [8]; 200 nM, 48 hour treatment): 53.1%
Cell Cycle (%) G2/M (SUP-B15 cells [8]; 200 nM, 48 hour treatment): 26.4%
Cell Cycle (%) S (SUP-B15 cells [8]; 200 nM, 48 hour treatment): 19.5%
Cell Cycle (%) G0/G1 (SUP-B15 cells [8]; 400 nM, 48 hour treatment): 54.6%
Cell Cycle (%) G2/M (SUP-B15 cells [8]; 400 nM, 48 hour treatment): 27.1%
Cell Cycle (%) S (SUP-B15 cells [8]; 400 nM, 48 hour treatment): 18.3%
Cell Cycle (%) G0/G1 (SUP-B15 cells [8]; 800 nM, 48 hour treatment): 47.5%
Cell Cycle (%) G2/M (SUP-B15 cells [8]; 800 nM, 48 hour treatment): 42.2%
Cell Cycle (%) S (SUP-B15 cells [8]; 800 nM, 48 hour treatment): 10.3%
Cell Cycle (%) G0/G1 (SUP-B15 cells [8]; 1600 nM, 48 hour treatment): 39.9%
Cell Cycle (%) G2/M (SUP-B15 cells [8]; 1600 nM, 48 hour treatment): 44.5%
Cell Cycle (%) S (SUP-B15 cells [8]; 1600 nM, 48 hour treatment): 15.7%
Cell Cycle (%) G0/G1 (SUP-B15 cells [8]; 3200 nM, 48 hour treatment): 49.9%
Cell Cycle (%) G2/M (SUP-B15 cells [8]; 3200 nM, 48 hour treatment): 31.5%
Cell Cycle (%) S (SUP-B15 cells [8]; 3200 nM, 48 hour treatment): 18.6%
synergy with imatinib (SUP-B15 Ph+ALL cells): showed synergy at all concentrations tested
Log ECF (MDA-MB-231): 1.25
cell cycle effect (BT20 cells): G2/M arrest
pIC50 (HS766T): 5.89
pIC50 (Mia PaCa-2): 6.10
